Measured values reported in patent publication US6936628B2, “Oral administration of epothilones” (Bristol-Myers Squibb Company, priority 2002, dated 2005).
Several values for one entry are separate records, joined by “and”; a condition that tells them apart may be missing. Equal entries are not always repeated.

Experiments:
HCT116/VM46 cells = assay: In vitro cytotoxicity assay (MTS), HCT116/VM46; type: cell-based, human; settings: concentration for 50% growth inhibition, HCT116/VM46 versus sensitive HCT116
[1] = tested on: A2780Tax human ovarian carcinoma; parameters: species or system nude mice; settings: mouse, in vivo, iv
[2] = tested on: HCT116/VM46 human colon carcinoma; parameters: species or system nude mice; settings: mouse, in vivo, iv
[3] = tested on: Pat-21 paclitaxel resistant breast cancer model; parameters: species or system nude mice; settings: mouse, in vivo, iv
[4] = tested on: Pat-7 human ovarian carcinoma; settings: mouse, in vivo, iv
[5] = tested on: Pat-26 human pancreatic carcinoma; settings: mouse, in vivo, iv
[6] = cited from earlier work
in vitro = settings: human, Caco-2
[7] = tested on: tubulin isolated from calf brain; type: biochemical
[8] = tested on: human ovarian carcinoma xenograft A2780; assay: Antitumor activity by parenteral administration to rats, A2780 xenograft; type: in vivo, nude rats
Description: The required number of animals needed to detect a meaningful response were pooled at the start of the experiment and each was given a subcutaneous implant of a tumor fragment (≈50 mg) with a 13-gauge trocar. For treatment of early-stage tumors, the animals were again pooled before distribution to the various treatment and control groups. For treatment of animals with advanced-stage disease, tumors were allowed to grow to the pre-determined size window (tumors outside the range were excluded) and animals were evenly distributed to various treatment and control groups. Treatment of each animal was based on individual body weight. Treated animals were checked daily for treatment related toxicity/mortality. Each group of animals was weighed before the initiation of treatment (Wt1) and then again following the last treatment dose (Wt2). The difference in body weight (Wt2−Wt1) provides a measure of treatment-related toxicity.
Tumor response was determined by measurement of tumors with a caliper twice a week, until the tumors reach a predetermined “target” size of 1 gm. Tumor weights (mg) were estimated from the formula: Tumor weight=(length×width^2)÷2
Antitumor activity was evaluated at the maximum tolerated dose (MTD) which is defined as the dose level immediately […] which excessive toxicity (i.e. more than one death) occurred. The MTD was frequently equivalent to OD. When death occurred, the day of death was recorded. Treated mice dying prior to having their tumors reach target size were considered to have died from drug toxicity. No control mice died bearing tumors less than target size. Treatment groups with more than one death caused by drug toxicity were considered to have had excessively toxic treatments and their data were not included in the evaluation of a compound's antitumor efficacy.
Tumor response end-point was expressed in terms of tumor growth delay (T−C value), defined as the difference in time (days) required for the treated tumors (T) to reach a predetermined target size compared to those of the control group (C).
To estimate tumor cell kill, the tumor volume doubling time was first calculated with the formula: TVDT=Median time (days) for control tumors to reach target size−Median time (days) for control tumors to reach half the target size and Log cell kill=T−C÷(3.32×TVDT)
Compound A was evaluated versus the human ovarian carcinoma xenograft A2780 grown in nude rats. […] In comparison, Compound B produced 3.3 LCK at its MTD (2.4 mg/kg/inj, IV, every 8 days×2).

For `CC(=O)O[C@H]1C(=O)[C@@]2(C)[C@H]([C@H](OC(=O)c3ccccc3)[C@]3(O)C[C@H](OC(=O)[C@H](O)[C@@H](NC(=O)c4ccccc4)c4ccccc4)C(C)=C1C3(C)C)[C@]1(OC(C)=O)CO[C@@H]1C[C@@H]2O` [Paclitaxel], the “R/S, or resistance ratio” value (HCT116/VM46 cells) was 155 fold, the “LCK (gross log cell kill)” value [1] was 0.8^3 and the “LCK (gross log cell kill)” value [2] was 0.55^3. The “LCK (gross log cell kill)” value [3] was 0.3^3, the “LCK (gross log cell kill)” value [4] was 0.8^3 and the “LCK (gross log cell kill)” value [5] was 0.4.

In the case of `CN/C(=N/CCSCc1nc[nH]c1C)NC#N` [cimetidine], the “extent of absorption in humans (% absorbed)” value (“extent … (% absorbed)” below) [6] is listed as 95% and the Papp (in vitro) is listed as 4.9 ×10⁻⁶ cm/s.

For `OC[C@@H](O)[C@@H](O)[C@H](O)[C@H](O)CO` [mannitol], the “extent … (% absorbed)” value [6] is listed as 15% and the Papp (in vitro) is listed as 3.2 ×10⁻⁶ cm/s.

In the case of “Epothilone B [BMS-205535 (Epothilone B)]”, the “Polymerization Potency, EC0.01” value [7] is reported as 1.8 µM and the “Ratio of Polymerization Potency of Analog/Paclitaxel” value (“Ratio … of Analog/Paclitaxel” for short) [7] is reported as 0.3.

With `C/C(=C\c1csc(C)n1)[C@@H]1C[C@@H]2O[C@@H]2CCC[C@H](C)[C@H](O)[C@@H](C)C(=O)C(C)(C)[C@@H](O)CC(=O)O1` [BMS-212188 (Epothilone A), Epothilone A] the “Polymerization Potency, EC0.01” value [7] was 2.0 µM and the “Ratio … of Analog/Paclitaxel” value [7] was 0.4.

In the case of `CCCC(=O)Nc1ccc(OCC(O)CNC(C)C)c(C(C)=O)c1` (stereo not drawn) [acebutalol], the “extent … (% absorbed)” value [6] is listed as 40%.

In the case of `C/C(=C\c1csc(C)n1)[C@@H]1C[C@@H]2O[C@]2(C)CCC[C@H](C)[C@H](O)[C@@H](C)C(=O)C(C)(C)[C@@H](O)CC(=O)N1` (relative stereo) [Compound B, [1S-[1R*,3R*(E),7R*,10S*,11R*,16S*]]-7,11-dihydroxy 8,8,10,12,16-pentamethyl-3-[1-methyl-2-(2-methyl-4-thiazolyl)ethenyl-17-oxa-4-azabicyclo[14.1.0]heptadecane-5,9-dione], the “Polymerization Potency, EC0.01” value [7] is reported as 3.5 µM, the “Ratio … of Analog/Paclitaxel” value [7] is reported as 0.4 and the LCK ([8]; A2780 in nude rats, IV, every 8 days×2, at MTD) is reported as 3.3. For the same compound, the MTD ([8]; nude rats bearing A2780, IV, every 8 days×2) was 2.4 mg/kg/inj, the LCK [4] was 1.9 and the “LCK (gross log cell kill)” value [5] was 1.2 and 1.2^3.
